Common to all, as to format: cell-based, human
For assay [1], the system named is AKT pathway in PC3 (prostate cancer) cells. Put plainly: AKT pathway inhibition by Western blotting in PC3 cells. The note with it: 180 minutes. Here is the method: PC3 cells were obtained from Cell Resource Center for Medical Research of Institute of Development, Aging, and Cancer, Tohoku University. The cells were cultured at 37° C. in the presence of 5% CO2 by using RPMI1640 medium containing inactivated fetal bovine serum at the concentration of 10%.
Western blotting was performed as follows. Various kinds of the cells treated with each compound were collected and lysed in a lysis buffer (500 mM Tris-HCl pH 7.5, 100 mM NaCl, 2 mM EDTA, 1 mM sodium orthovanadate, 1% NP-40, and 1% protease inhibitor cocktail, manufactured by SIGMA-ALDRICH). After centrifugation, the supernatants were collected.
The followings were used as primary antibodies.
As a secondary antibody, “Alexa Fluor680IgG” (trade name, manufactured by Invitrogen) was used. By using “Odyssey Infrared Imaging System” (trade name, manufactured by LI-COR), expression of the protein of interest was determined.
A general note: In western blotting, separated proteins are transferred to a membrane and probed.

Assay [2] has as its system CO115 cells. In words: Cytotoxic effect by MTT assay, CO115. The note with it: CO115, 24 hours. The protocol:
(§1) The human culture cells used were colon cancer cell lines (HCT116, CO115, and RKO). HCT116 and RKO were obtained from American Type Culture Collection (ATCC). CO115 was obtained from John M. Mariadason (Ludwig Institute for Cancer Research, Melbourne, Australia). The cells were cultured at 37° C. in the presence of 5% CO2 by using RPMI1640 medium containing inactivated fetal bovine serum at the concentration of 10%.
(§2) After 24 hours, the number of live cells was determined by using “Cell counting kit-8” (trade name, manufactured by DOJINDO CO., LTD). […] The amount of formazan dye and the number of live cells are in proportional relationship, and by measuring the absorbance of formazan at 450 nm using a microplate reader (trade name: “SpectraMax M2e”, manufactured by Molecular Devices), the number of live cells was counted.

The test system of assay [3] is HCT116 cells. In words: Cytotoxic effect by MTT assay, HCT116. The note with it: HCT116, 24 hours, 5 nM to 500 nM. Here is the method: as §1, §2
The subject of assay [4] is RKO cells. Put plainly: Cytotoxic effect by MTT assay, RKO. The note with it: 24 hours, 5 nM to 500 nM. The protocol:
as §1, §2

Take `CC(C)[C@H]1NC(=O)CC2/C=C/CCSSCC(NC1=O)C(=O)N[C@H](Cc1cccc3ccccc13)C(=O)NCC(=O)O2` (some centres unmarked) [FK-A11]: in assay [1], the “inhibition of AKT phosphorylation compared with FK-A5 and FK228” value was “occurred at a lower concentration than FK-A5 and FK228”. The cell death entry in assay [2] (from 500 nM) was “strong cell death”; in assay [2] (up to 50 nM), “resistant”; in assay [3], “significant cell death”; in assay [4], “significant cell death”.

The record behind these values is patent publication US9963482B2, “Phosphatidylinositol-3-kinase inhibitor and pharmaceutical composition” (Tohoku University, priority 2011, dated 2018).
